Experimental data as given in BindingDB's records for doi:10.1021/jm00054a015 (Merck Research Laboratories, 1993).

Target: T1, Dimer of Gag-Pol polyprotein [489-587] (Human immunodeficiency virus 1, UniProt P12497)
T1 construct: 489-587
Test: Protease Inhibition Assay
Settings: pH 5.5; 30 °C
Method: Sensitivity of HIV-1 protease activity to protease inhibitors was determined by a peptide substrate cleavage assay. Protease products were analyzed on a reverse-phase high-pressure liquid chromatograph.

Point of comparison: `CC(C)(C)NC(=O)C1C[C@@H]2CCCC[C@@H]2CN1C[C@@H](O)[C@H](Cc1ccccc1)NC(=O)O[C@@H]1CCCOC1` (stereo partly drawn) [(3R)-oxan-3-yl N-[(2S,3R)-4-[(4aS,8aS)-3-(tert-butylcarbamoyl)-decahydroisoquinolin-2-yl]-3-hydroxy-1-phenylbutan-2-yl]carbamate], IC50 308 nM. Against it:
- CC(C)(C)NC(=O)C1C[C@@H]2CCCC[C@@H]2CN1C[C@@H](O)[C@H](Cc1ccccc1)NC(=O)O[C@H]1CCCOC1 (stereo partly drawn) [(3S)-oxan-3-yl N-[(2S,3R)-4-[(4aS,8aS)-3-(tert-butylcarbamoyl)-decahydroisoquinolin-2-yl]-3-hydroxy-1-phenylbutan-2-yl]carbamate] — within 1.5-fold, 392 nM
- CC(C)(C)NC(=O)C1C[C@@H]2CCCC[C@@H]2CN1C[C@@H](O)[C@H](Cc1ccccc1)NC(=O)OC(C)(C)C (stereo partly drawn) [tert-butyl N-[(2S,3R)-4-[(4aS,8aS)-3-(tert-butylcarbamoyl)-decahydroisoquinolin-2-yl]-3-hydroxy-1-phenylbutan-2-yl]carbamate] — higher, > 3000 nM
- CC(C)(C)NC(=O)C1C[C@@H]2CCCC[C@@H]2CN1C[C@@H](O)[C@H](Cc1ccccc1)NC(=O)O[C@H]1C=CCOC1 (stereo partly drawn) [(3S)-3,6-dihydro-2H-pyran-3-yl N-[(2S,3R)-4-[(4aS,8aS)-3-(tert-butylcarbamoyl)-decahydroisoquinolin-2-yl]-3-hydroxy-1-phenylbutan-2-yl]carbamate] — within 1.5-fold, 314 nM
- O=C(N[C@@H](Cc1ccccc1)[C@@H](O)C[C@@H](Cc1ccccc1)C(=O)N[C@H]1c2ccccc2C[C@H]1O)O[C@H]1CCCOC1 [(3S)-oxan-3-yl N-[(2S,3S,5R)-5-benzyl-3-hydroxy-5-{[(1S,2R)-2-hydroxy-2,3-dihydro-1H-inden-1-yl]carbamoyl}-1-phenylpentan-2-yl]carbamate] — lower, < 0.03 nM
- O=C(N[C@@H](Cc1ccccc1)[C@@H](O)C[C@@H](Cc1ccccc1)C(=O)N[C@H]1c2ccccc2C[C@H]1O)O[C@H]1CCOC1 [(3S)-oxolan-3-yl N-[(2S,3S,5R)-5-benzyl-3-hydroxy-5-{[(1S,2R)-2-hydroxy-2,3-dihydro-1H-inden-1-yl]carbamoyl}-1-phenylpentan-2-yl]carbamate] — lower, < 0.03 nM
- CC(C)(C)NC(=O)C1C[C@@H]2CCCC[C@@H]2CN1C[C@@H](O)[C@H](Cc1ccccc1)NC(=O)O[C@@H]1C=CCOC1 (stereo partly drawn) [(3R)-3,6-dihydro-2H-pyran-3-yl N-[(2S,3R)-4-[(4aS,8aS)-3-(tert-butylcarbamoyl)-decahydroisoquinolin-2-yl]-3-hydroxy-1-phenylbutan-2-yl]carbamate] — 6.3-fold lower, 48.9 nM
- O=C(N[C@@H](Cc1ccccc1)[C@@H](O)C[C@@H](Cc1ccccc1)C(=O)N[C@H]1c2ccccc2C[C@H]1O)O[C@@H]1CCCOC1 [(3R)-oxan-3-yl N-[(2S,3S,5R)-5-benzyl-3-hydroxy-5-{[(1S,2R)-2-hydroxy-2,3-dihydro-1H-inden-1-yl]carbamoyl}-1-phenylpentan-2-yl]carbamate] — lower, < 0.03 nM
